In brackets after ≈: the same amount, converted by molar mass.
Columns and labels:
[1] = target: T1, Tyrosine-protein kinase JAK3 (Homo sapiens, UniProt P52333)
T1 sequence (P52333 whole entry): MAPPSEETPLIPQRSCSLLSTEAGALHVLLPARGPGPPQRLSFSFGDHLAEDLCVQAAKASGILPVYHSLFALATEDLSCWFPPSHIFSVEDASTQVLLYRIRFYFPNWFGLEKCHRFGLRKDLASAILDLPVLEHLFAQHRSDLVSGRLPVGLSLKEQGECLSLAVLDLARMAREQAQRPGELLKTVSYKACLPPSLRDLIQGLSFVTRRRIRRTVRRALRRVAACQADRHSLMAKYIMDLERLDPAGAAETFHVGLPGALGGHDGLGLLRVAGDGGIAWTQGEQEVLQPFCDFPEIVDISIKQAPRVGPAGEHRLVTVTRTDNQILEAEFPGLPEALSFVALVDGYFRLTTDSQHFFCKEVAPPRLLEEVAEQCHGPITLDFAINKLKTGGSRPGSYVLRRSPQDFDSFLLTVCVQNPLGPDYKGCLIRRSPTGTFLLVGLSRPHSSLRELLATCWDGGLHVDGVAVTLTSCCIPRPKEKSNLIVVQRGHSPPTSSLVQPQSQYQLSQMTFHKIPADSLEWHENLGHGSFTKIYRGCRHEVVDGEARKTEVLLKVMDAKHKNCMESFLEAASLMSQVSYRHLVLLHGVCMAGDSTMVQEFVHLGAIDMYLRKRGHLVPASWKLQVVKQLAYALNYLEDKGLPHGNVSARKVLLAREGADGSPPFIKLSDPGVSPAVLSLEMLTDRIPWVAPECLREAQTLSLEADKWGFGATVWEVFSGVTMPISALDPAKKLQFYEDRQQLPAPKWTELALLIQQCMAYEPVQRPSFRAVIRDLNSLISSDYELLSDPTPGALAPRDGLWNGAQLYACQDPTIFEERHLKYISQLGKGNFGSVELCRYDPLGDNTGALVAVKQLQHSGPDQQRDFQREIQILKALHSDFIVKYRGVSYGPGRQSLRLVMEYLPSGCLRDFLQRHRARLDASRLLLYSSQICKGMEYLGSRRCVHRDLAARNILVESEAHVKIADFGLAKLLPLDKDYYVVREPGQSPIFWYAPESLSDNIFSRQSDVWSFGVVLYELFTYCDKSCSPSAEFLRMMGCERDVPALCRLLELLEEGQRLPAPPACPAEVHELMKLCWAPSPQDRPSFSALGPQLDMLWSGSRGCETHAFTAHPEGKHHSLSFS

[2] = physchem; details: octanol/water
Description: Lipophilicity, logD of the compound by shake flask assay

[3] = target: T2, Tyrosine-protein kinase JAK2 (Homo sapiens, UniProt O60674)
T2 sequence (O60674 whole entry): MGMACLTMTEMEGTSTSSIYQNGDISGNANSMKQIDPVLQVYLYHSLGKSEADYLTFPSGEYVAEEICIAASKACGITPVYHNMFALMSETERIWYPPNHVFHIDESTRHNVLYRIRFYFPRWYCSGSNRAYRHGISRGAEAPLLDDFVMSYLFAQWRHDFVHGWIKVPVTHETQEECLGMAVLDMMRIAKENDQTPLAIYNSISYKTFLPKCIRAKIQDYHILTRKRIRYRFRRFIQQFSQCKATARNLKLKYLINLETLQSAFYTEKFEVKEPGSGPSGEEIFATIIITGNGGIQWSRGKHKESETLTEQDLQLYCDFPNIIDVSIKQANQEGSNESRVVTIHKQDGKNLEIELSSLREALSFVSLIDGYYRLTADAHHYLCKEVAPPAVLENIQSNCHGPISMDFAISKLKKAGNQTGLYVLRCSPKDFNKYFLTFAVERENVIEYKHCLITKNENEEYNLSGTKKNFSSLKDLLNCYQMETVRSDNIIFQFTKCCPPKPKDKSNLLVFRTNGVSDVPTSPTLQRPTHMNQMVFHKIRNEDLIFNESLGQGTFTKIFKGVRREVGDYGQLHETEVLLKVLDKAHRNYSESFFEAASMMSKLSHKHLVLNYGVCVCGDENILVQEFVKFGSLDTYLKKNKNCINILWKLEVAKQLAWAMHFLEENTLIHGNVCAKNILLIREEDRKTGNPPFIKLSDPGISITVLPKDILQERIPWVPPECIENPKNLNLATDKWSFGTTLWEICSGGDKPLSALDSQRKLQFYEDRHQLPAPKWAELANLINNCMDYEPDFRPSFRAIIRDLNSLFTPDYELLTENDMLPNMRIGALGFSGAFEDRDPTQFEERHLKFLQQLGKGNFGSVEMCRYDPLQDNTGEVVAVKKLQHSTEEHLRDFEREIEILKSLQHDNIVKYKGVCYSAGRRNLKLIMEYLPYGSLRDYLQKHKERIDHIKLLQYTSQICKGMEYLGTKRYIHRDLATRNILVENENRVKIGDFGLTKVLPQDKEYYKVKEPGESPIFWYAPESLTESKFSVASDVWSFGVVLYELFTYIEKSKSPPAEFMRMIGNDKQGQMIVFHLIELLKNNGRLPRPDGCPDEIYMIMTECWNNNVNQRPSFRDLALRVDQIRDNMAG

[4] = physchem; details: PBS buffer, pH 7.4
Description: Aqueous solubility in PBS buffer at pH 7.4 by HPLC analysis

[5] = in vitro; details: human, liver microsomes
Description: Apparent intrinsic clearance in human liver microsomes

[6] = target: T3, Tyrosine-protein kinase JAK1 (Homo sapiens, UniProt P23458)
T3 sequence (P23458 whole entry): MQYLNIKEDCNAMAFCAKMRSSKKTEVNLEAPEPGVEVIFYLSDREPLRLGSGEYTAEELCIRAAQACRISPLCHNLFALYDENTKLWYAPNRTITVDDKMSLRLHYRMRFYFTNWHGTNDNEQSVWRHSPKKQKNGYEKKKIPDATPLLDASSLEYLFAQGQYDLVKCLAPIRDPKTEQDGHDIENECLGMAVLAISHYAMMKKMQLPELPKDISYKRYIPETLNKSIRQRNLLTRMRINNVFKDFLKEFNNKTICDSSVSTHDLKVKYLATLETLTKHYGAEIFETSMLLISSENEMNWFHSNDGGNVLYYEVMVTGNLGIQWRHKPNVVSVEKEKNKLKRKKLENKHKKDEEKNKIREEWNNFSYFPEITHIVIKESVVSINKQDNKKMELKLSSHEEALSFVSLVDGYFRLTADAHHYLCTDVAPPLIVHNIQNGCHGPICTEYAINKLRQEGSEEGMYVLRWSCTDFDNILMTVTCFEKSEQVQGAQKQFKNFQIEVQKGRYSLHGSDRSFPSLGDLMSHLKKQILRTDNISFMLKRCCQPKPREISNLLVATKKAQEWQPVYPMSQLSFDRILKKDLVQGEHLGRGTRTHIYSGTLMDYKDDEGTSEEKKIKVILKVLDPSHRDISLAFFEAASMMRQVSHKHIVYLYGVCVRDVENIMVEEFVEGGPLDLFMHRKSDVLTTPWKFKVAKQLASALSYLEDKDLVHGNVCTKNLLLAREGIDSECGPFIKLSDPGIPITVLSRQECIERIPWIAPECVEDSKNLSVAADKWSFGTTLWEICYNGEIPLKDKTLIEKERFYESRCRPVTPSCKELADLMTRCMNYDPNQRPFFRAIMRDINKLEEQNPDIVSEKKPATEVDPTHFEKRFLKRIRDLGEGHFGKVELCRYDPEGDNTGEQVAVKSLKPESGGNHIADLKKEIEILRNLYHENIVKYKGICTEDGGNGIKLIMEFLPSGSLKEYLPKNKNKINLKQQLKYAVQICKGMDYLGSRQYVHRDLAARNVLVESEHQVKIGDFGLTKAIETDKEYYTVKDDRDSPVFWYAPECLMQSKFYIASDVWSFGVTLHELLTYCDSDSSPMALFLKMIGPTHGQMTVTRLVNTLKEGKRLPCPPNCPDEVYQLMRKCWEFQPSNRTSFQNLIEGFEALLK

[7] = target: T2, Tyrosine-protein kinase JAK2; remark: listed apart in the source
Description: Inhibition of JAK2 in human STAT5-irf1-bla TF1 cells assessed as reduction in EPO-induced STAT5-signalling pre-incubated for 1 hrs before EPO addition and further incubated for 4 hrs fluorescence based assay

[8] = target: T3, Tyrosine-protein kinase JAK1; remark: listed apart in the source
Description: Inhibition of JAK1 in human STAT6-bla-RA1 cells assessed as reduction in IL4-induced STAT6-signalling pre-incubated for 1 hrs before human recombinant IL4 addition and further incubated for 4 hrs fluorescence based assay

[9] = Drug absorption in rat at […], po; assay type: ADME, organism-based; details: in vivo, read-out: Fabs
[10] = Oral bioavailability in rat at […]; assay type: ADME, organism-based; details: in vivo
[11] = Half life in rat at […], po or 0.06 mg/kg, iv; assay type: ADME, organism-based; details: in vivo
[12] = target: Fibroblast growth factor receptor 1 (Homo sapiens) (UniProt P11362); test: Inhibition of human FGFR1 cytoplasmic domain (398 to 822(end) residues) at 1 mM ATP relative to control
[13] = Terminal Phase volume of distribution […] in rat at […], po or 0.06 mg/kg, iv; assay type: ADME, organism-based; details: in vivo, read-out: Vbeta
[14] = target: Cytochrome P450 3A4 (Homo sapiens, UniProt P08684); test: Inhibition of CYP3A4 (unknown origin) up to 25 uM; assay type: ADME
[15] = target: Cytochrome P450 2D6 (Homo sapiens, UniProt P10635); test: Inhibition of CYP2D6 (unknown origin) up to 25 uM; assay type: ADME
[16] = in vitro; details: rat, hepatocytes
Description: Apparent intrinsic clearance in rat hepatocytes

[17] = target: Non-receptor tyrosine-protein kinase TYK2 (Homo sapiens, UniProt P29597)
Chain of Non-receptor tyrosine-protein kinase TYK2 (P29597 whole entry): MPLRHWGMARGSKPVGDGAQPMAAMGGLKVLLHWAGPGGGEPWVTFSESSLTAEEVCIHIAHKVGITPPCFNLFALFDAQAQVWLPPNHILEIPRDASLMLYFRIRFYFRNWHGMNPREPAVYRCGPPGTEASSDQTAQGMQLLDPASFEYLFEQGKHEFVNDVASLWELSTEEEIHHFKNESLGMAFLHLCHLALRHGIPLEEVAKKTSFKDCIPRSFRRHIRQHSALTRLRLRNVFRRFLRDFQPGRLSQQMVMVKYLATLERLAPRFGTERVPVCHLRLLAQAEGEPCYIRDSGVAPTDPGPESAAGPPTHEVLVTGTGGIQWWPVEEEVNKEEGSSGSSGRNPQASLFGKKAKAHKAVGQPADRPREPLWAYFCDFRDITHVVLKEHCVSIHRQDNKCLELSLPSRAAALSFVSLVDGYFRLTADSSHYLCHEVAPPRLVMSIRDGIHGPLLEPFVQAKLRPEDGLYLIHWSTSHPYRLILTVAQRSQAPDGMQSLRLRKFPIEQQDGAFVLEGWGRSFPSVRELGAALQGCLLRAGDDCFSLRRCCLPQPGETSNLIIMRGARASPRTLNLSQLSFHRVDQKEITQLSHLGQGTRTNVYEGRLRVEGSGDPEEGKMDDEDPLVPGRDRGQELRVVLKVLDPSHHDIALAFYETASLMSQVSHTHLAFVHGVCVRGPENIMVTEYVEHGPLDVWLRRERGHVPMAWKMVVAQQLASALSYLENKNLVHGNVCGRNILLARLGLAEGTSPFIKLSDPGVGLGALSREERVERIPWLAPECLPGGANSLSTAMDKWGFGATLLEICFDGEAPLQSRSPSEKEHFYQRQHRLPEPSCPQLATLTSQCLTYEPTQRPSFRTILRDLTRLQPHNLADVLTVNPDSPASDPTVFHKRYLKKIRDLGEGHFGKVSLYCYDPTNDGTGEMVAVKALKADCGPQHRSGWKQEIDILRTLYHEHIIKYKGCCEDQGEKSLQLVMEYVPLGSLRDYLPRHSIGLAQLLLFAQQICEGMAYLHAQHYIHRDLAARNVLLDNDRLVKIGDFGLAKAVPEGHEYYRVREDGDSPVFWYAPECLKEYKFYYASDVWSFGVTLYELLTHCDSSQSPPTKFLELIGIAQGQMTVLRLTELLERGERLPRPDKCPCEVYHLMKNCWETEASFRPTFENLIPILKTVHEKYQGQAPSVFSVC

[18] = target: Cytochrome P450 2C9 (Homo sapiens, UniProt P11712); test: Inhibition of CYP2C9 (unknown origin) up to 25 uM; assay type: ADME
[19] = target: Voltage-gated inwardly rectifying potassium channel KCNH2 (Homo sapiens, UniProt Q12809); test: Binding affinity to human ERG at 30 uM
Chain of Voltage-gated inwardly rectifying potassium channel KCNH2 (Q12809 whole entry): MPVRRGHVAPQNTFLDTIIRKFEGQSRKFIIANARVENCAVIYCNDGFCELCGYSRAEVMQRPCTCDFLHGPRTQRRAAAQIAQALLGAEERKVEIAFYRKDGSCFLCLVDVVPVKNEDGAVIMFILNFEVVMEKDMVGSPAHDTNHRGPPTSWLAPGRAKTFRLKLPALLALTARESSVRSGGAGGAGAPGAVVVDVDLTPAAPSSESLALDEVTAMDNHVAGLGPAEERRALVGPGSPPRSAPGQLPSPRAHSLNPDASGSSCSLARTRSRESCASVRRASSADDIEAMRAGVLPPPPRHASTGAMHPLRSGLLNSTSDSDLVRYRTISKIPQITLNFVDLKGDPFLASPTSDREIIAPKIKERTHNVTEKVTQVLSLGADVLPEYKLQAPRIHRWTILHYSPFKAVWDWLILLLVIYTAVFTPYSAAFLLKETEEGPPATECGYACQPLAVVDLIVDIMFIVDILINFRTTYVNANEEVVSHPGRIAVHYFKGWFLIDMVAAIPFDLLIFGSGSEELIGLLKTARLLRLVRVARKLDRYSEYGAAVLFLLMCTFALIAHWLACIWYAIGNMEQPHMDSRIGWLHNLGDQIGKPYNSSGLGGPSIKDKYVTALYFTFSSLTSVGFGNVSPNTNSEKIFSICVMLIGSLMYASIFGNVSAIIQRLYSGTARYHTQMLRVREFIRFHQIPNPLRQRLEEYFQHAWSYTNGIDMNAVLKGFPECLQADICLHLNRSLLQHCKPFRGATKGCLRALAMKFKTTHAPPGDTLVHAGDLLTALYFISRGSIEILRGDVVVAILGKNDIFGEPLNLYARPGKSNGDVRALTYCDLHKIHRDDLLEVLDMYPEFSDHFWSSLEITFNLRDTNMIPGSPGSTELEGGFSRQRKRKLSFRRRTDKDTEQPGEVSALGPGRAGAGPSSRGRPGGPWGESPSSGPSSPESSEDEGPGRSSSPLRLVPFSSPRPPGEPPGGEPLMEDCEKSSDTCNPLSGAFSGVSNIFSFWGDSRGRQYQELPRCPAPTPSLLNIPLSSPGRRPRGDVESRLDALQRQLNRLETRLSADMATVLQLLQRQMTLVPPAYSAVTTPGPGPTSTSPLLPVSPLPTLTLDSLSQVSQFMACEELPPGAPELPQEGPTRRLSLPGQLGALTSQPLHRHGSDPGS

[20] = Clearance in rat at […], po or 0.06 mg/kg, iv; assay type: ADME, organism-based; details: in vivo
[21] = in vitro; details: rat, liver microsomes
Description: Apparent intrinsic clearance in rat liver microsomes

[22] = Apparent permeability in human Caco2 cells; assay type: ADME, cell-based; details: Caco-2
[23] = target: Cytochrome P450 2C19 (Homo sapiens, UniProt P33261); test: Inhibition of CYP2C19 (unknown origin) up to 25 uM; assay type: ADME
Chain of Cytochrome P450 2C19 (P33261 whole entry): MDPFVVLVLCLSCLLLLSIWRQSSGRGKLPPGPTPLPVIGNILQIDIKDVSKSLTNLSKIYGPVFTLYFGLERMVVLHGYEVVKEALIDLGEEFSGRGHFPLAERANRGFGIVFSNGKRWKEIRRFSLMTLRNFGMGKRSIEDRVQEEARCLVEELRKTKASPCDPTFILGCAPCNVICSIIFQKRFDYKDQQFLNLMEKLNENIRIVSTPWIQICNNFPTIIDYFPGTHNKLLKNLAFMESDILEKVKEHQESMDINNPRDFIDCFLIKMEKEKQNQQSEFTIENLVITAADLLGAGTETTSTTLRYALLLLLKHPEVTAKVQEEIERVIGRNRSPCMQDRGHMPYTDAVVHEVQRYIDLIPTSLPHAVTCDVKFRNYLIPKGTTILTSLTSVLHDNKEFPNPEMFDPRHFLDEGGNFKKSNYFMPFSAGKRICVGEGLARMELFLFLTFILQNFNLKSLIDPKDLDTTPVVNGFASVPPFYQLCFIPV

[24] = target: T4, Cytochrome P450 1A2 (Homo sapiens, UniProt P05177); test: Inhibition of CYP1A2 (unknown origin) up to 25 uM; assay type: ADME
T4 sequence (P05177 whole entry): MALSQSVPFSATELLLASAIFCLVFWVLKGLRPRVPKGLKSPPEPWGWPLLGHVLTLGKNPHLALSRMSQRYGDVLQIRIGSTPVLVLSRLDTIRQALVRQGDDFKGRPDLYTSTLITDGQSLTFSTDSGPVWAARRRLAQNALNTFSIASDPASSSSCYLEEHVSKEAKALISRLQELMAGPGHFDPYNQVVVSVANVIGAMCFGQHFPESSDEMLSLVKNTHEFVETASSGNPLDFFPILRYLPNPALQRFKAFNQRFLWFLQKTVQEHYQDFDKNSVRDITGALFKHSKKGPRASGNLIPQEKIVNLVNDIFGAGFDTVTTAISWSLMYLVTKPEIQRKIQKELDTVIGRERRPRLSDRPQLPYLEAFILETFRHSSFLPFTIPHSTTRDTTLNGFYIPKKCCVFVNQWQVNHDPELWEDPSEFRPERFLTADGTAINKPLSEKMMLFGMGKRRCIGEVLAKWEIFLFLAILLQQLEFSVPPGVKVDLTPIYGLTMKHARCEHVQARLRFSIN

[25] = Protein binding in rat plasma assessed as unbound fraction; assay type: ADME, cell-free

SMILES | IC50 [1] [nM] | logD [2] | IC50 [3] [nM] | solubility [4] [µM] | CLint scaled [5] [mL/min/kg] | IC50 [6] [nM] | IC50 [7] [nM] | IC50 [8] [nM] | IC50 [17] [nM] | other results
Cc1[nH]nc2[nH]c(=O)cc([C@H]3CC[C@H](CC(=O)N4CCC(C#N)C4)CC3)c12 (mixture of isomers) | 150 | 0.7 | 89 | 85 (≈ 31.2 µg/mL) | < 8 | 11 | > 45000 | 14000 | – | –
Cc1[nH]nc2[nH]c(=O)cc([C@H]3CC[C@H](CC(=O)N4CC(C#N)C4)CC3)c12 | 97 | 0.5 | 64 | 540 (≈ 191 µg/mL) | < 8 | 13 | > 30000 | > 30000 | – | –
Cc1[nH]nc2[nH]c(=O)cc([C@H]3C[C@H]4C[C@@H]3C[C@@H]4CC#N)c12 | 88 | 1.5 | 12 | 89 (≈ 25.1 µg/mL) | < 8 | – | 2800 | – | 20 | Fa [9]: 41%; bioavailability [10]: 14%; half-life [11]: 18 min; inhibition [12]: 32%; Vd [13]: 1.2 L/kg; inhibition (INH) [14]: Not Active; inhibition (INH) [15]: Not Active; CLint scaled [16]: 25 mL/min/kg; inhibition (INH) [18]: Not Active; Activity [19]: Not Active; clearance [20]: 53 mL/min/kg; CLint scaled [21]: < 15 mL/min/kg; Papp [22]: 0.7 ×10⁻⁶ cm/s; inhibition (INH) [23]: Not Active; inhibition (INH) [24]: Not Active; fraction unbound [25]: 0.22
Cc1[nH]nc2[nH]c(=O)cc([C@H]3C[C@H]4C[C@@H]3C[C@H]4CC#N)c12 | 970 | 1.6 | 360 | 290 (≈ 81.9 µg/mL) | < 8 | – | > 43000 | – | 330 | –
Cc1[nH]nc2[nH]c(=O)cc([C@@H]3C[C@@H]4C[C@H]3C[C@@H]4CC#N)c12 | 220 | 1.5 | 150 | > 92 | < 8 | – | 24000 | – | 220 | –
